According to PubChem BioAssay AID330 (DTP/NCI, 2004):
Where “and” joins values, the source holds several entries; their conditions need not be identical. Equal values may be shown once. Toxic doses and inconclusive results are not listed. How the source made its calls: active means survival T/C of 150% or more; inactive means T/C below 125% in these data. Square brackets hold non-standard residues; d marks the D form. Peptide text beside a SMILES is read from it. * marks the point of attachment. Cbz = O=C(OCc1ccccc1)*; Nva = CCC[CH](N)C(=O)O

System: P388 leukemia ip, CD2F1 mice, survival T/C
Assay: NCI In Vivo Anticancer Drug Screen. Data for tumor model P388 Leukemia (intraperitoneal) in CD2F1 (CDF1) mice
Details: endpoint: median survival time, higher = longer survival
Summary of the method: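 Mice carrying the transplanted tumor received test compound or vehicle. Survival was recorded in each group, and the value is the treated-group measurement divided by that of the vehicle-treated control group.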

[1] = dose: 50.0 mg/kg/injection, schedule: Q01DX005 (ip), vehicle: saline
[2] = dose: 100.0 mg/kg/injection, schedule: Q01DX005 (ip), vehicle: saline
[3] = dose: 200.0 mg/kg/injection, schedule: Q01DX005 (ip), vehicle: saline
[4] = dose: 100.0 mg/kg/injection, schedule: Q04DX003 (ip), vehicle: Klucel (hydroxypropylcellulose) (HPC)
[5] = dose: 200.0 mg/kg/injection, schedule: Q04DX003 (ip), vehicle: Klucel (hydroxypropylcellulose) (HPC)
[6] = dose: 400.0 mg/kg/injection, schedule: Q04DX003 (ip), vehicle: Klucel (hydroxypropylcellulose) (HPC)
[7] = dose: 50.0 mg/kg/injection, schedule: Q04DX002 (ip), vehicle: saline with Tween-80
[8] = dose: 100.0 mg/kg/injection, schedule: Q01DX005 (ip), vehicle: saline with Tween-80
[9] = dose: 200.0 mg/kg/injection, schedule: Q01DX005 (ip), vehicle: saline with Tween-80
[10] = dose: 50.0 mg/kg/injection, schedule: Q01DX005 (ip), vehicle: Klucel (hydroxypropylcellulose) (HPC)
[11] = dose: 100.0 mg/kg/injection, schedule: Q01DX005 (ip), vehicle: Klucel (hydroxypropylcellulose) (HPC)
[12] = dose: 200.0 mg/kg/injection, schedule: Q01DX005 (ip), vehicle: Klucel (hydroxypropylcellulose) (HPC)
[13] = dose: 25.0 mg/kg/injection, schedule: Q01DX009 (ip), vehicle: Klucel (hydroxypropylcellulose) (HPC)

Measured: T/C

CC(C)CNc1ncnc2c1cnn2C
inactive: [1] 94 % of control | [2] 112 % of control | [3] 115 % of control

O=C(CC(O)(c1ccccc1)c1ccccc1)SCc1ccccc1
inactive: [4] 102 % of control | [5] 98 % of control | [6] 110 % of control

COc1ccc(C(CC(=O)N(CCCl)CCCl)CC(=O)N(CCCl)CCCl)cc1
inactive: dose: 100.0 mg/kg/injection, schedule: Q01DX001 (ip), vehicle: suspension in saline 108 % of control | dose: 200.0 mg/kg/injection, schedule: Q01DX001 (ip), vehicle: suspension in saline 119 % of control

[Cu+2].[O-]/C(=N\N=C\c1ccccn1)c1ccc(Cl)cc1.[O-]/C(=N\N=C\c1ccccn1)c1ccc(Cl)cc1
inactive: [7] 90 % of control | dose: 100.0 mg/kg/injection, schedule: Q04DX002 (ip), vehicle: saline with Tween-80 93 % of control | dose: 200.0 mg/kg/injection, schedule: Q04DX002 (ip), vehicle: saline with Tween-80 90 % of control

CN(C)CCN1C(=O)c2cccc3cc([N+](=O)[O-])cc(c23)C1=O
inactive: dose: 0.78 mg/kg/injection, schedule: Q01DX009 (ip), vehicle: saline with Tween-80 101 % of control | dose: 3.12 mg/kg/injection, schedule: Q01DX009 (ip), vehicle: saline with Tween-80 117 % of control and 124 % of control

O=C(O)CCSC(=S)NN1CCN(NC(=S)SCCC(=O)O)CC1
inactive: dose: 60.0 mg/kg/injection, schedule: Q01DX005 (ip), vehicle: Klucel (hydroxypropylcellulose) (HPC) 108 % of control | dose: 120.0 mg/kg/injection, schedule: Q01DX005 (ip), vehicle: Klucel (hydroxypropylcellulose) (HPC) 100 % of control | dose: 240.0 mg/kg/injection, schedule: Q01DX005 (ip), vehicle: Klucel (hydroxypropylcellulose) (HPC) 96 % of control

CSC(=S)N/N=C(C)\C=N/Nc1ccccc1
inactive: dose: 100.0 mg/kg/injection, schedule: Q04DX002 (ip), vehicle: saline 101 % of control | dose: 200.0 mg/kg/injection, schedule: Q04DX002 (ip), vehicle: saline 106 % of control | dose: 400.0 mg/kg/injection, schedule: Q04DX002 (ip), vehicle: saline 96 % of control

COc1c2occc2c(N=Cc2ccc([N+](=O)[O-])cc2)c2ccc(=O)oc12
inactive: dose: 0.38 mg/kg/injection, schedule: Q01DX005 (ip), vehicle: saline with Tween-80 99 % of control | dose: 0.75 mg/kg/injection, schedule: Q01DX005 (ip), vehicle: saline with Tween-80 98 % of control | dose: 1.5 mg/kg/injection, schedule: Q01DX005 (ip), vehicle: saline with Tween-80 90 % of control | dose: 6.25 mg/kg/injection, schedule: Q01DX005 (ip), vehicle: saline with Tween-80 87 % of control | [8] 87 % of control | [9] 98 % of control

O=C1C=CC(Cc2ccccc2)N1C(=O)c1ccccc1 (stereo not given)
inactive: dose: 50.0 mg/kg/injection, schedule: Q01DX005 (ip), vehicle: saline with Tween-80 99 % of control | [8] 100 % of control | [9] 97 % of control

COC1OC(CO)C(O)C(O)C1N1C(=O)c2ccccc2C1=O (stereo not given)
inactive: [10] 100 % of control | [1] 97 % of control | [11] 98 % of control | [2] 97 % of control | [12] 97 % of control | [3] 101 % of control

C/C(=N\N=C(N)N)c1ccc(-c2ccccc2)cc1
inactive: dose: 25.0 mg/kg/injection, schedule: Q04DX002 (ip), vehicle: saline with Tween-80 111 % of control | [7] 109 % of control

C#CCOc1ccccc1C(=O)NNc1ccc([N+](=O)[O-])cc1[N+](=O)[O-]
inactive: dose: 50.0 mg/kg/injection, schedule: Q01DX009 (ip), vehicle: saline with Tween-80 97 % of control | dose: 100.0 mg/kg/injection, schedule: Q01DX009 (ip), vehicle: saline with Tween-80 87 % of control

C=CCSc1nc2ccc(N3C(=O)C=CC3=O)cc2s1
inactive: dose: 6.25 mg/kg/injection, schedule: Q01DX009 (ip), vehicle: Klucel (hydroxypropylcellulose) (HPC) 111 % of control | dose: 12.5 mg/kg/injection, schedule: Q01DX009 (ip), vehicle: Klucel (hydroxypropylcellulose) (HPC) 104 % of control and 113 % of control | [13] 108 % of control and 113 % of control

COC(=O)c1nc(N)nc(C(=O)OC)c1C(=O)c1ccc(Cl)c(Cl)c1
inactive: dose: 60.0 mg/kg/injection, schedule: Q01DX005 (ip), vehicle: saline with Tween-80 100 % of control | dose: 120.0 mg/kg/injection, schedule: Q01DX005 (ip), vehicle: saline with Tween-80 94 % of control

CCCC(NC(=O)OCc1ccccc1)C(=O)NC(C(=O)O)C(C)CC (stereo not given) (Cbz-[Nva]-Ile-OH; configuration not given here)
inactive: [10] 100 % of control | [11] 100 % of control | [12] 101 % of control

CCc1c(CNc2ccc(Cl)c(Cl)c2)ccc2nc(N)nc(N)c12
inactive: dose: 12.5 mg/kg/injection, schedule: Q01DX005 (ip), vehicle: Klucel (hydroxypropylcellulose) (HPC) 109 % of control

CCCCC1C(=O)N2C=C(c3ccccc3)c3ccccc3N2C1=O (stereo not given)
inactive: [13] 104 % of control | dose: 50.0 mg/kg/injection, schedule: Q01DX009 (ip), vehicle: Klucel (hydroxypropylcellulose) (HPC) 111 % of control | dose: 100.0 mg/kg/injection, schedule: Q01DX009 (ip), vehicle: Klucel (hydroxypropylcellulose) (HPC) 95 % of control | dose: 200.0 mg/kg/injection, schedule: Q01DX009 (ip), vehicle: Klucel (hydroxypropylcellulose) (HPC) 105 % of control | dose: 400.0 mg/kg/injection, schedule: Q01DX009 (ip), vehicle: Klucel (hydroxypropylcellulose) (HPC) 95 % of control

Clc1ccc(CN2Cc3ccc4cccnc4c3OC2c2ccncc2)cc1Cl (stereo not given)
inactive: [4] 100 % of control | [5] 96 % of control | [6] 103 % of control
